The values below come from PMC8309005, “Novel Non-Congeneric Derivatives of the Choline Kinase Alpha Inhibitor ICL-CCIC-0019” (Pharmaceutics, 2021).

Each structure is given as a SMILES string. Where two headings read alike, the source gives them in different places.

For data set [1], the system named is 8 cancer cell lines. More on the design: method as in PMID 27206796. Particulars: cited from earlier work.
Data set [2] relates to Δ49N CHKA2 (recombinant CHKA2). Particulars: read-out: IC50 Δ49N CHKA2; cited from earlier work.
The subject of data set [3] is MCF-10A and ST-T1B (2 normal cell lines). Particulars: read-out: GI50 range of 2 normal cell lines (MCF-10A and ST-T1B); cited from earlier work.
Data set [4] has as its system A549. Particulars: cited from earlier work.
In data set [5] the test system is HCT116 xenografts. The settings on record: cited from earlier work.
Data set [6] has as its system HCT-116. Particulars: cited from earlier work.
The test system of data set [7] is [18F]D4-FCH uptake in C4-2B cells. The data set can be described thus: [18F]D4-FCH uptake in vitro study, C4-2B. It is filed as cell-based. The settings on record: Homo sapiens, 1 μM, read-out: inhibition of [18F]D4-FCH uptake (mean of CK14, CK145 and CK146). The procedure:
HCT-116 and C4-2B cells were seeded at a density of 5 × 10^5 cells per well into 6-well plates and incubated overnight. Cells were treated with 1 or 10 µM CHKA inhibitors (CK14, CK145, CK146 and CK147) for 1 h and pulsed with [^18F]D4-FCH (740 kBq) in presence of inhibitors in 1 mL for an additional hour at 37 °C. Cells were washed with ice-cold PBS three times and lysed in 1 mL RIPA buffer. The radioactivity of 800 µL lysate from each well was counted on a gamma counter (Perkin Elmer, Beaconsfield, UK) and normalized to protein content as determined by BCA assay.

What is called GI50 is the concentration at which growth is held to half of that of the control. In general, IC50 refers to the point on the concentration scale where inhibition reaches its midpoint. `CN(C)c1cc[n+](CCCCCCCCCCCC[n+]2ccc(N(C)C)cc2)cc1` [ICL-CCIC-0019]: the GI50 in data set [1] (read-out: GI50 range of 8 cancer cell lines) is 380 to 2700 nM; in data set [1] (read-out: mean GI50 of 8 cancer cell lines), 1090 nM; in data set [3] it was 30 to 120 µM; in data set [4] it was 380 nM; in data set [6], 640 nM. For the same compound, the IC50 in data set [2] is 270 ± 60 nM. For the same compound, in data set [5], the “in vivo anti-tumor activity (in words)” value is “potent in vivo anti-tumor activity”. In addition, the “body weight effect (in words)” value in data set [5] (in vivo) is recorded as “slight reduction in body weight”.

The term inhibition denotes the drop in the measured response relative to a control, in per cent. For the compound `CC(=O)NCCCCC(NC(=O)OC(C)(C)C)C(=O)N1CCN(c2cc[n+](CCCCCCCCCCCCCC[n+]3ccc(N(C)C)cc3)cc2)CC1` (stereo not shown) [CK145], the inhibition at 1 µM in data set [7] worked out at 46 ± 1%.

`CN(C)c1cc[n+](CCCCCCCCCCCCCC[n+]2ccc(N3CCNCC3)cc2)cc1` [CK146]: the inhibition at 1 µM in data set [7] was 46 ± 1%.
